The source of these data is patent US20250066351A1, “PYRAZOLO[1,5-A]PYRIDIN-2,3-YL AMIDES AS KV7 CHANNEL ACTIVATORS” (Biohaven Therapeutics Ltd., priority 2022, published 2025).

Usually EC50 stands for the concentration needed to bring the measured effect to its halfway point.

The target of the first test is T1, hKv7.2/7.3 (Homo sapiens, UniProt O43525+O43526).
T1 construct: host or cells: HEK cells, tetracycline-inducible expression
The experiment in a line: Kv7.2/7.3 Activation Assay, QPatch planar patch-clamp single concentration screen. The conditions noted are these: increase in current over baseline, Kv7.2/Kv7.3 co-expressing HEK cells, compound concentration 3 μM, steady-state current at end of 2 s pulse to −30 mV. The test is classed as cell-based. The procedure, abridged:
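Tetracycline-induced HEK cells expressing hKv7.2/7.3, recorded 24 h post-induction by automated whole-cell patch clamp (−80 mV hold, 2 s step to −30 mV). Compound tested at 3 μM (0.1% DMSO); fold increase in steady-state current at end of the −30 mV step over baseline.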
In general terms: Patch clamp records ionic current or voltage across a cell membrane.
Take `CC(C)(C)CC(=O)Nc1nn2ccc(C#N)cc2c1C1CCC1` [Example 3, N-(5-cyano-3-cyclobutylpyrazolo[1,5-a]pyridin-2-yl)-3,3-dimethylbutanamide]: the “QPatch Kv7.2/7.3 Activity” value is recorded as “+ (2.0-3.99 (+))”.
The same measure, in the same setting: for `CC(C)(O)CC(=O)NNc1nn2ccc(C(F)(F)F)cc2c1-c1ccc(F)cc1` [Example 85, N′-(3-(4-fluorophenyl)-5-(trifluoromethyl)pyrazolo [1,5-a]pyridin-2-yl)-3-hydroxy-3-methylbutanehydrazide] the value was “− (<1.2-fold (−))”; for `CC(C)(C)CC(=O)Nc1nn2ccc(C(F)(F)F)cc2c1C(C)(C)O` [Example 86, N-(3-(2-hydroxypropan-2-yl)-5-(trifluoromethyl)pyrazolo[1,5-a]pyridin-2-yl)-3,3-dimethylbutanamide], “+/− (1.2-1.99-fold (+/−))”; for `C[C@@](O)(CC(=O)Nc1nn2ccc(C(F)(F)F)cc2c1C1CCC1)C1CC1` [Example 87, (R)-N-(3-cyclobutyl-5-(trifluoromethyl)pyrazolo[1,5-a]pyridin-2-yl)-3-cyclopropyl-3-hydroxybutanamide], “+ (2.0-3.99 (+))”.

Another test concerns the target T1, hKv7.2/7.3. The experiment in a line: Kv7.2/7.3 Thallium Flux Assay. The test is classed as cell-based. The conditions noted are these: EC50 of Kv7.2/Kv7.3 activation, responses normalized to retigabine 30 μM. On the set-up: key to Thallium Flux Kv7.2/7.3 Activity: 3-10 μM (*); 1-3 μM (**); <1 μM (***); NC stands for Not Calculable. An excerpt: The Thallium Flux Assay is used as a surrogate indicator of potassium channel activity.
The experimental protocol was adapted from the FluxOR™ II Green Potassium Ion Channel Assay User Guide (Pub. No. MAN0016084, Invitrogen). Conditions were optimized for the Kv7.2/7.3 cell line.
Cell Line: The hKv7.2/7.3 cell line was obtained from Chantest (Cleveland, OH 44128) cat. #CT6147.
Cell Culture: Kv7.2/7.3 cells were maintained in a media containing DMEM/F12; 50/50 (GIBCO cat. #11330), 10% Fetal Bovine Serum (FBS) (GIBCO cat. #26140), 100 units/mL Penicillin-Streptomycin (GIBCO cat. #15140), 0.005 mg/ml Blasticidin (SIGMA 15205), 0.5 mg/mL Geneticin (GIBCO cat. #10131), and 0.1 mg/mL Zeocin (GIBCO cat. #R25001). One day prior to experimentation, cells were plated in 96 well clear bottom plates (Corning cat. #353219) in a media without Blasticidin, Geneticin, or Zeocin. Channel expression was induced by adding tetracycline (Bioline cat. #BIO87030) at a final concentration of 10 ng/mL.
Compound Plates: The test compound is diluted in a mixture of 0.1% DMSO/extracellular solution with an eight-point concentration range from 0.014 μM to 30 μM. Serial dilutions were made on a Biomek NXP (BECKMAN COULTER).
Measurement and data analysis: A plate reader (Enspire, Perkin Elmer) is used to characterize the ion-channel modulating properties of novel compounds using an excitation wavelength of 475 nm and an emission wavelength of 530 nm. After a 15 sec baseline measurement, the stimulus buffer containing thallium and potassium is injected. A final endpoint measure is taken after 90 sec. Responses are normalized to positive control (retigabine, 30 μM max). Mean normalized responses at each concentration tested are fit to the standard Hill equation to generate an EC50 and maximal response.
For the molecule `CC(C)(C)CC(=O)Nc1nn2ccc(C#N)cc2c1C1CCC1` [Example 3, N-(5-cyano-3-cyclobutylpyrazolo[1,5-a]pyridin-2-yl)-3,3-dimethylbutanamide], the EC50 was less than 1000 nM.
In the case of `CC(C)(C)CC(=O)Nc1nn2ccc(C#N)cc2c1C(C)(C)C` [Example 88, N-(3-(tert-butyl)-5-cyanopyrazolo[1,5-a]pyridin-2-yl)-3,3-dimethylbutanamide], the “Thallium Flux Kv7.2/7.3 Activity” value is “NC”.
Same read-out and setting: for `CC(C)(C)c1c(NC(=O)CC(C)(C)C(F)(F)F)nn2ccc(C#N)cc12` [Example 89, N-(3-(tert-butyl)-5-cyanopyrazolo[1,5-a]pyridin-2-yl)-4,4,4-trifluoro-3,3-dimethylbutanamide] the value was “NC”; for `CC(C)(C)c1c(NC(=O)C[C@@H]2CC(F)(F)C2(F)F)nn2ccc(C#N)cc12` [Example 90, (R)-N-(3-(tert-butyl)-5-cyanopyrazolo[1,5-a]pyridin-2-yl)-2-(2,2,3,3-tetrafluorocyclobutyl) acetamide], “NC”; for `CC(C)(C)CC(=O)Nc1nn2ccccc2c1C#N` [Example 91, N-(3-cyanopyrazolo [1,5-a]pyridin-2-yl)-3,3-dimethylbutanamide], “NC”.
The same measure, in the same setting: then `CCOC(=O)c1c(NC(=O)CC(C)(C)C)nn2ccccc12` [Example 92, ethyl 2-(3,3-dimethylbutanamido) pyrazolo[1,5-a]pyridine-3-carboxylate], with “NC”.
With `CC(C)(C)CC(=O)Nc1nn2ccccc2c1C(C)(C)O` [Example 93, N-(3-(2-hydroxypropan-2-yl)pyrazolo[1,5-a]pyridin-2-yl)-3,3-dimethylbutanamide], the EC50 was less than 1000 nM.
Consider `N#Cc1ccn2nc(NC(=O)C[C@H]3CC(F)(F)C3(F)F)c(C3CCC3)c2c1` [Example 94, (S)-N-(5-cyano-3-cyclobutylpyrazolo[1,5-a]pyridin-2-yl)-2-(2,2,3,3-tetrafluorocyclobutyl) acetamide], for which the EC50 was less than 1000 nM.
As for `N#Cc1ccn2nc(NC(=O)C[C@@H]3CC(F)(F)C3(F)F)c(C3CCC3)c2c1` [Example 96, (R)-N-(5-cyano-3-cyclobutylpyrazolo[1,5-a]pyridin-2-yl)-2-(2,2,3,3-tetrafluorocyclobutyl) acetamide], the “Thallium Flux Kv7.2/7.3 Activity” value is given as “NC”.
Consider `N#Cc1ccn2nc(NC(=O)CC3(C(F)(F)F)CC3)c(C3CCC3)c2c1` [Example 97, N-(5-cyano-3-cyclobutylpyrazolo[1,5-a]pyridin-2-yl)-2-(1-(trifluoromethyl)cyclopropyl)acetamide], for which the “Thallium Flux Kv7.2/7.3 Activity” value is “NC”.
For `CC(C)(O)c1ccn2nc(NC(=O)C[C@@H]3CC(F)(F)C3(F)F)c(C3CCC3)c2c1` [Example 98, (R)-N-(3-cyclobutyl-5-(2-hydroxypropan-2-yl)pyrazolo[1,5-a]pyridin-2-yl)-2-(2,2,3,3-tetrafluorocyclobutyl) acetamide], the EC50 is less than 1000 nM.
